HELM strings list units from the 5' end as sugar, base in round brackets, then linkage (d deoxyribose, r ribose, m 2'-O-methyl, p phosphodiester). Strings are as the collection lists them; they lack the last nucleoside at the 3' end of the tested compound. [moe] = 2'-O-(2-methoxyethyl) (MOE); [sp] = phosphorothioate linkage; [m5C] = 5-methylcytosine

The record followed here is the OligoGym collection.

This data set deals with ATXN2. In words: mouse, dose not given. Conditions: ASO.

As for “RNA1{[moe](T)[sp].[moe](A)p.[moe](T)p.[moe](G)p.[moe](T)[sp].d(T)[sp].d(T)[sp].d(G)[sp].d(T)[sp].d([m5C])[sp].d(T)[sp].d(G)[sp].d(T)[sp].[moe]([m5C])p.[moe](T)p.[moe](T)[sp].[moe](A)}$$$$ (last 3' nucleoside missing)”, the 3 h FOB score was found to be 6 score 0-7. The substance “RNA1{[moe](T)[sp].[moe](A)p.[moe](T)p.[moe]([m5C])p.[moe](A)[sp].d(T)[sp].d([m5C])[sp].d(A)[sp].d(T)[sp].d(T)[sp].d(T)[sp].d(T)[sp].d([m5C])[sp].[moe]([m5C])p.[moe](A)p.[moe](G)[sp].[moe](G)}$$$$ (last 3' nucleoside missing)” gave a 3 h FOB score of 1.5 score 0-7. With “RNA1{[moe](T)[sp].[moe](A)p.[moe](T)p.[moe]([m5C])p.[moe](A)p.d(T)[sp].d([m5C])[sp].d(A)[sp].d(T)[sp].d(T)[sp].d(T)[sp].d(T)[sp].d([m5C])[sp].d([m5C])[sp].d(A)[sp].[moe](G)p.[moe](G)p.[moe](G)[sp].[moe]([m5C])}$$$$ (last 3' nucleoside missing)” the figure was 4.75 score 0-7; with “RNA1{[moe](T)[sp].[moe](A)p.[moe]([m5C])p.[moe](A)p.[moe](G)p.d(G)[sp].d(T)[sp].d(G)[sp].d(A)[sp].d(G)[sp].d(A)[sp].d(T)[sp].d(A)[sp].d(T)[sp].d(A)[sp].[moe](T)p.[moe](A)p.[moe](G)[sp].[moe](G)}$$$$ (last 3' nucleoside missing)”, 4 score 0-7; with “RNA1{[moe](T)[sp].[moe](A)p.[moe]([m5C])p.[moe](A)p.[moe]([m5C])p.d(A)[sp].d(G)[sp].d(T)[sp].d(T)[sp].d(T)[sp].d([m5C])[sp].d(A)[sp].d([m5C])[sp].d(T)[sp].d(A)[sp].[moe](G)p.[moe](G)p.[moe](T)[sp].[moe](T)}$$$$ (last 3' nucleoside missing)”, 1 score 0-7. With “RNA1{[moe](T)[sp].[moe](A)p.[moe]([m5C])p.[moe](G)p.[moe]([m5C])p.d(G)[sp].d(G)[sp].d(T)[sp].d(G)[sp].d(A)[sp].d(A)[sp].d(T)[sp].d(T)[sp].d([m5C])[sp].d(T)[sp].[moe](G)p.[moe](T)p.[moe]([m5C])[sp].[moe](T)}$$$$ (last 3' nucleoside missing)” the figure was 0 score 0-7. With “RNA1{[moe](T)[sp].[moe](A)p.[moe]([m5C])p.[moe](T)p.[moe](G)[sp].d(T)[sp].d(T)[sp].d(T)[sp].d([m5C])[sp].d(G)[sp].d(A)[sp].d([m5C])[sp].d([m5C])[sp].[moe](T)p.[moe]([m5C])p.[moe](T)[sp].[moe](G)}$$$$ (last 3' nucleoside missing)”, the 3 h FOB score was determined as 4.75 score 0-7. With “RNA1{[moe](T)[sp].[moe](A)p.[moe]([m5C])p.[moe](T)p.[moe](G)p.d(T)[sp].d(T)[sp].d(T)[sp].d([m5C])[sp].d(G)[sp].d(A)[sp].d([m5C])[sp].d([m5C])[sp].d(T)[sp].d([m5C])[sp].[moe](T)p.[moe](G)p.[moe](A)[sp].[moe](A)}$$$$ (last 3' nucleoside missing)” the figure was 3 score 0-7. To “RNA1{[moe](T)[sp].[moe](A)p.[moe]([m5C])p.[moe](T)p.[moe](T)[sp].d(T)[sp].d(T)[sp].d([m5C])[sp].d(T)[sp].d([m5C])[sp].d(A)[sp].d(T)[sp].d(G)[sp].[moe](T)p.[moe](G)p.[moe]([m5C])[sp].[moe](G)}$$$$ (last 3' nucleoside missing)” belongs 4.75 score 0-7; to “RNA1{[moe](T)[sp].[moe](A)p.[moe]([m5C])p.[moe](T)p.[moe](T)[sp].d([m5C])[sp].d(A)[sp].d([m5C])[sp].d(A)[sp].d(T)[sp].d(T)[sp].d(T)[sp].d(G)[sp].[moe](G)p.[moe](A)p.[moe](G)[sp].[moe]([m5C])}$$$$ (last 3' nucleoside missing)”, 3.25 score 0-7.
